# Experimental data from patent US10577373B2, “TYK2 inhibitors and uses thereof” (Nimbus Lakshmi, Inc., priority 2017, dated 2020).
# Where two headings read alike, the source gives them in different places.
# Columns and labels:
# [1] = system: IL-12 induced STAT4 phophorylation mediated by Tyk2/JAK2 (heterodimeric complex); test: IL-12 Induced pSTAT4 in Human PBMC; format: cell-based; details: 1.7 ng/mL IL-12
# Description: The IL-12 Induced pSTAT4 assay evaluates the inhibition of IL-12 induced STAT4 phophorylation mediated by Tyk2/JAK2 (heterodimeric complex).
# [2] = system: GM-CSF induced STAT5 phosphorylation mediated by the JAK2/JAK2 homdimeric complex; test: GM-CSF Induced pSTAT5 in Human PBMC
# Description: Human PBMC are isolated from buffy coat and are stored frozen for assays as needed.
# [3] = Homo sapiens, PBMC, 20 min, read-out: PBMC_GMCSF_pSTAT5 IC50, human PBMC, GM-CSF 5 ng/mL for 20 minutes, pSTAT5
# [4] = read-out: PBMC_GMCSF_pSTAT5 IC50, human PBMC, GM-CSF 5 ng/mL for 20 minutes, pSTAT5
SMILES,IC50 [1] [nM],"IC50 [2, 3] [µM]","IC50 ([2]; Homo sapiens, PBMC, 20 min, read-out: PBMC_GMCSF_pSTAT5 IC50) [µM]","IC50 [2, 4] [µM]"
[2H]C([2H])([2H])Oc1ncccc1Nc1cc(NC)n2ncc(C(=O)N[C@H]3CC[C@@H]3O)c2n1 [I-373],< 100,> 50,,
"CCn1cc(Cl)cc(Nc2cc(NC)n3ncc(C(=O)NC4CC4)c3n2)c1=O [I-133, 5-((5-chloro-1-ethyl-2-oxo-1,2-dihydropyridin-3-yl)amino)-N-cyclopropyl-7-(methylamino)pyrazolo[1,5-a]pyrimidine-3-carboxamide]",< 100,> 12.5,,
CNc1cc(Nc2cc(Cl)cn([C@H]3CCCN(C)C3)c2=O)nc2c(C(=O)NC3CC3)cnn12 [I-820],< 100,> 12.5,,
CNc1cc(Nc2cccn(C3CCCCC3)c2=O)nc2c(C(=O)N[C@H]3C[C@H]3F)cnn12 [I-305],< 100,> 12.5,,
CNc1cc(Nc2cccn([C@H]3CC[C@H](OC)CC3)c2=O)nc2c(C(=O)N[C@H]3C[C@H]3F)cnn12 [I-344],< 100,> 12.5,,
CNc1cc(Nc2cc(Cl)cn(C3CCCN(C)C3)c2=O)nc2c(C(=O)N[C@@H]3C[C@@H]3F)cnn12 (stereo partly shown) [I-759],< 100,> 50,,
CNc1cc(Nc2cccn(-c3cc(C)n(C)n3)c2=O)nc2c(C(=O)NC3CCC3)cnn12 [I-136],< 100,> 2.5,,
CNc1cc(Nc2cccn(-c3cnn(CC4CCOCC4)c3)c2=O)nc2c(C(=O)N[C@H]3C[C@H]3F)cnn12 [I-407],< 100,> 12.5,,
CNc1cc(Nc2cc(Cl)cn(-c3ncc(C)s3)c2=O)nc2c(C(=O)N[C@H]3C[C@H]3F)cnn12 [I-323],< 100,> 2.5,,
CNc1cc(Nc2cccn(C3CCCOC3)c2=O)nc2c(C(=O)NC3CCC3)cnn12 (racemic) [I-324],< 100,> 50,,
[2H]C([2H])([2H])Oc1ncc(F)cc1Nc1cc(NC)n2ncc(C(=O)NC3CC3)c2n1 [I-284],< 100,> 12.5,,
CNc1cc(Nc2cccn([C@H]3CC[C@](C)(OC)CC3)c2=O)nc2c(C(=O)N[C@H]3C[C@H]3F)cnn12 [I-362],< 100,> 50,,
CNc1cc(Nc2cc(Cl)cn(-c3ccn(C)n3)c2=O)nc2c(C(=O)N[C@H]3C[C@H]3F)cnn12 [I-309],< 100,> 12.5,,
CNc1cc(Nc2cccn(-c3ncc(C)s3)c2=O)nc2c(C(=O)NC3CCC3)cnn12 [I-263],< 100,> 2.5,,
CNc1cc(Nc2cccn(-c3cccc(C)n3)c2=O)nc2c(C(=O)N[C@H]3C[C@H]3F)cnn12 [I-131],< 100,> 12.5,,
CNc1cc(Nc2cccn([C@@H]3CCCOC3)c2=O)nc2c(C(=O)N[C@@H]3C[C@@H]3F)cnn12 [I-474],< 100,> 12.5,,
CNc1cc(-c2c[nH]c3c(C4CCOCC4)cc(Cl)cc23)nc2c(C(N)=O)cnn12 [I-190],< 100,> 12.5,,
CNc1cc(Nc2cccc(N3CCCC3=O)n2)nc2c(C(=O)NC3CCC3)cnn12 [I-94],< 100,> 50,,
CNc1cc(Nc2cccn(-c3ocnc3C)c2=O)nc2c(C(=O)N[C@@H]3C[C@@H]3F)cnn12 [I-790],< 100,> 12.5,,
CNc1cc(Nc2cccn(-c3cccc(C(C)(C)O)n3)c2=O)nc2c(C(=O)NC3CCC3)cnn12 [I-156],< 100,> 12.5,,
"CNc1cc(Nc2cc(C)cc(C)c2)nc2c(C(N)=O)cnn12 [I-2, 5-((3,5-dimethylphenyl)amino)-7-(methylamino)pyrazolo[1,5-a]pyrimidine-3-carboxamide]",< 100,> 50,,
CNc1cc(Nc2cc(Cl)cn(C3CCN(C)CC3)c2=O)nc2c(C(=O)N[C@@H]3CC[C@H]3O)cnn12 [I-930],< 100,> 50,,
CNc1cc(Nc2cc(C)cn(-c3cnn(C)c3)c2=O)nc2c(C(=O)NC3CCC3)cnn12 [I-234],< 100,> 2.5,,
CNc1cc(Nc2cccn(-c3ccc(F)cn3)c2=O)nc2c(C(=O)N[C@H]3C[C@H]3F)cnn12 [I-115],< 100,> 12.5,,
CNc1cc(Nc2cccn(-c3ccc(C(=O)N4CCCC4)cn3)c2=O)nc2c(C(=O)NC3CCC3)cnn12 [I-121],100 to 500,> 12.5,,
CNc1cc(Nc2cccn([C@H]3CC[C@](C)(OC)CC3)c2=O)nc2c(C(=O)N[C@@H]3CC[C@H]3OC)cnn12 [I-959],< 100,> 50,,
CNc1cc(Nc2cccn(-c3cccnc3)c2=O)nc2c(C(=O)NC3CC3)cnn12 [I-747],100 to 500,> 12.5,,

SMILES,IC50 [1] [nM],"IC50 [2, 3] [µM]","IC50 ([2]; Homo sapiens, PBMC, 20 min, read-out: PBMC_GMCSF_pSTAT5 IC50) [µM]","IC50 [2, 4] [µM]"
CNc1cc(Nc2cc(Cl)cn(-c3cnn(C4CC4)c3C)c2=O)nc2c(C(=O)N[C@H]3C[C@H]3F)cnn12 [I-326],< 100,> 50,,
CNc1cc(Nc2cccnc2OC)nc2c(C(=O)NC[C@H](C)CO)cnn12 [I-483],< 100,> 50,,
CNc1cc(Nc2cccc([C@@H]3CCCOC3)n2)nc2c(C(=O)N[C@@H]3CC[C@H]3O)cnn12 [I-665],< 100,> 2.5,,
CNc1cc(Nc2cc(Cl)cn(C3CCCN(C)C3)c2=O)nc2c(C(=O)NC3CC3)cnn12 (stereo not shown) [I-740],< 100,> 2.5,,
"CCONC(=O)c1cnn2c(NC)cc(Nc3cccn(-c4ncccc4F)c3=O)nc12 [I-798, N-ethoxy-5-((3′-fluoro-2-oxo-2H-[1,2′-bipyridin]-3-yl)amino)-7-(methylamino) pyrazolo[1,5-a]pyrimidine-3-carboxamide]",[…],,> 50,
CNc1cc(Nc2cccn(-c3cnc(C)o3)c2=O)nc2c(C(=O)N[C@H]3C[C@H]3F)cnn12 [I-718],< 100,> 12.5,,
"CNC(=O)c1occc1Nc1cc(NC)n2ncc(C(=O)N[C@@H]3C[C@@H]3F)c2n1 [I-888, N-((1R,2S)-2-fluorocyclopropyl)-7-(methylamino)-5-((2-(methylcarbamoyl)furan-3-yl)amino)pyrazolo[1,5-a]pyrimidine-3-carboxamide]",< 100,> 50,,
[2H]C([2H])([2H])Oc1ncc(C)cc1Nc1cc(NC)n2ncc(C(=O)NC3CC3)c2n1 [I-258],< 100,> 50,,
CNc1cc(Nc2cccn3ccnc23)nc2c(C(=O)N[C@@H]3C[C@@H]3F)cnn12 [I-892],< 100,> 12.5,,
"CNc1cc(Nc2cccn(-c3ccn(C4CC4)n3)c2=O)nc2c(C(=O)N[C@@H]3C[C@@H]3F)cnn12 (stereo in doubt) [I-106, 5-((1-(1-cyclopropyl-1H-pyrazol-3-yl)-2-oxo-1,2-dihydropyridin-3-yl)amino)-N-((1R,2S)-2-fluorocyclopropyl)-7-(methylamino)pyrazolo[1,5-a]pyrimidine-3-carboxamide]",< 100,> 12.5,,
CNc1cc(Nc2cc(F)cn(-c3ccn(C)n3)c2=O)nc2c(C(=O)NC3CC3)cnn12 [I-378],< 100,> 12.5,,
CNc1cc(Nc2cc(Cl)cn(-c3ccn(C4CC4)n3)c2=O)nc2c(C(=O)N[C@H]3C[C@H]3F)cnn12 [I-332],< 100,> 2.5,,
CNc1cc(Nc2cccc3ocnc23)nc2c(C(=O)N[C@H]3C[C@H]3F)cnn12 [I-592],< 100,> 12.5,,
CNc1cc(Nc2cccn(C3CCCCC3)c2=O)nc2c(C(=O)N[C@@H]3CC[C@H]3O)cnn12 [I-1002],< 100,,,> 50
CNc1cc(Nc2cc(F)cnc2OCCOC)nc2c(C(=O)N[C@H]3C[C@H]3F)cnn12 [I-285],< 100,> 50,,
CNc1cc(Nc2cccn(-c3ncc(C)s3)c2=O)nc2c(C(=O)N[C@H]3C[C@H]3F)cnn12 [I-262],< 100,> 2.5,,
CNc1cc(-c2cn(CCN3CCOCC3)c3ncccc23)nc2c(C(=O)N[C@H]3CC[C@@H]3OC)cnn12 [I-886],< 100,> 0.3,,
CNc1cc(Nc2cccnc2OC2CCC2)nc2c(C(=O)N[C@H]3C[C@H]3F)cnn12 [I-170],< 100,> 50,,
CNc1cc(Nc2cc(Cl)cn(-c3ccc(C4CC4)nn3)c2=O)nc2c(C(=O)N[C@H]3C[C@H]3F)cnn12 [I-334],< 100,> 50,,
"CNc1cc(Nc2cccn([C@H]3CC[C@](C)(OC)CC3)c2=O)nc2c(C(=O)N[C@@H]3CC[C@@H]3O)cnn12 [I-722, N-((1S,2R)-2-hydroxycyclobutyl)-5-((1-((1R,4S)-4-methoxy-4-methylcyclohexyl)-2-oxo-1,2-dihydropyridin-3-yl)amino)-7-(methylamino)pyrazolo[1,5-a]pyrimidine-3-carboxamide]",< 100,,,> 12.5
[2H]C([2H])([2H])Oc1ncccc1Nc1cc(NC)n2ncc(C(=O)N[C@@H]3CC[C@H]3O)c2n1 [I-410],< 100,> 12.5,,
[2H]C([2H])([2H])Oc1ncccc1Nc1cc(NC)n2ncc(C(=O)N[C@H]3C[C@H]3F)c2n1 [I-177],< 100,> 12.5,,
CNc1cc(Nc2cc(Cl)cn(-c3cnc(C(=O)N(C)C)cn3)c2=O)nc2c(C(=O)N[C@H]3C[C@H]3F)cnn12 [I-319],< 100,> 2.5,,
CNc1cc(Nc2cccc(C3CCCOC3)n2)nc2c(C(=O)N[C@@H]3C[C@@H]3F)cnn12 (stereo partly shown) [I-522],< 100,> 50,,
CNc1cc(-c2cn(CCN3CCN(C)CC3)c3ncccc23)nc2c(C(=O)N[C@H]3CC[C@@H]3OC)cnn12 [I-952],100 to 500,> 2.5,,
"CNc1cc(Nc2cccc3ocnc23)nc2c(C(=O)N[C@@H]3CC[C@H]3O)cnn12 (racemic) [I-756, 5-(benzo[d]oxazol-4-ylamino)-N-(2-hydroxycyclobutyl)-7-(methylamino) pyrazolo[1,5-a]pyrimidine-3-carboxamide]",100 to 500,> 50,,
